# In US11453632B2, “1-phenyl-2-phenylethane derivative” (KAO CORPORATION, priority 2018, dated 2022):
# How the values were obtained:
# ERβ LBD = target: T1, ERβ LBD (Homo sapiens, UniProt Q92731); assay: Ability to bind to ERβ: pBIND-ERβ LBD / GAL4 luciferase reporter in HEK293 cells; type: cell-based; design: key: RLU = firefly luminescence / Renilla luminescence; conditions: negative control 0.0118997
# T1 construct: host or cells: HEK293
# Description: This evaluation system is a system exploiting difference in the sequence of the ligand binding domain (LBD) between ERα and ERβ (J Endocrinol 163: 379-383 (1999)), and enables selective activation of ERβ to be evaluated by determining the binding of a ligand to LBD and the activation of ER.
# (§1) A human kidney-derived cell line HEK293 was cultured (37° C., 5% CO2) in Dulbecco's modified Eagle medium (hereinafter, abbreviated to DMEM) containing 10% (v/v) fetal bovine serum (FBS) and penicillin/streptomycin.
# (§2) 2) Measurement of Binding Activity Against ERs
# (§3) This measurement was carried out according to the method described in JP-B-5990058. Specifically, HEK293 cells were inoculated at a cell density of 4.0×10^4 cells/well to a 96-well plate. After 12 hours therefrom, the medium was replaced with a culture solution (DMEM containing 5% (v/v) charcoal-treated serum). The cells were cotransfected with pBIND-ERα for the expression of ERα LBD or pBIND-ERβ for the expression of ERβ LBD (Promega Corp.) and pGL4.35[luc2P/9XGAL4UAS/Hygro](Promega Corp.) using Lipofectamine 2000 (Invitrogen Corp.) according to the protocol attached to the product. 24 hours after transfection, the medium was replaced with a culture solution containing a test sample, followed by culture for another 24 hours. The activity measurement of firefly luciferase (index for the ligand binding activity of ER) and Renilla reniformis luciferase (index for the transfection efficiency of the plasmids) was carried out using Dual-Glo™ Luciferase Assay System (Promega Corp.) according to the attached protocol. The luminescence intensity of the firefly luciferase was divided by the luminescence intensity of the Renilla reniformis luciferase to calculate a relative light unit (RLU).
# ERα LBD = target: T2, ERα LBD (Homo sapiens, UniProt P03372); assay: Ability to bind to ERα: pBIND-ERα LBD / GAL4 luciferase reporter in HEK293 cells; type: cell-based; design: key: firefly luciferase / Renilla luciferase luminescence ratio; conditions: negative control 0.00847035
# T2 construct: host or cells: HEK293
# T2 sequence (P03372 311-547 limits assumed): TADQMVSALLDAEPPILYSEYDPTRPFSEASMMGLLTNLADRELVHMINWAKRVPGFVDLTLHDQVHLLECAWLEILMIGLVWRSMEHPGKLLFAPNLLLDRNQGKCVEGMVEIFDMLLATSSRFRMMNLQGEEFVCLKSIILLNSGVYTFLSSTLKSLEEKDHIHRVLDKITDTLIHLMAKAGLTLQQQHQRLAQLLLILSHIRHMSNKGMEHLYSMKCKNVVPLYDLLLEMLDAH
# Description: as §1, §2
# as §3, with “Specifically,” for “This measurement was carried out according to the method described in JP-B-5990058. Specifically,”
# T1 sequence (Q92731 264-498 limits assumed): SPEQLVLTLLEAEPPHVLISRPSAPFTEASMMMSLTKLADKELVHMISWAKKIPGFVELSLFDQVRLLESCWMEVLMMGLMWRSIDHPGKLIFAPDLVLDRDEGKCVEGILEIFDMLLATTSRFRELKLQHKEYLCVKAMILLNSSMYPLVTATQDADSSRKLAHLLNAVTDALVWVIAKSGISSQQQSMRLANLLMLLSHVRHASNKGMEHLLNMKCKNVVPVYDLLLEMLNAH
structure (smiles),measurement,setting,value
"Oc1ccc(CC(c2ccc(O)cc2)c2ccn[nH]2)cc1 (stereo not drawn) [Compound 12, 4,4′-(1-(1H-pyrazol-5-yl)ethane-1,2-diyl)diphenol]","relative light unit (RLU), ligand binding activity ERβ",ERβ LBD; 0.01 nM,0.01836
same,"relative light unit (RLU), ligand binding activity ERβ",ERβ LBD; 0.1 nM,0.01732
same,"relative light unit (RLU), ligand binding activity ERβ",ERβ LBD; 1 nM,0.03073
same,"relative light unit (RLU), ligand binding activity ERβ",ERβ LBD; 10 nM,0.02066
same,"relative light unit (RLU), ligand binding activity ERβ",ERβ LBD; 100 nM,0.026
same,"relative light unit (RLU), ligand binding activity ERα",ERα LBD; 0.01 nM,0.006803
same,"relative light unit (RLU), ligand binding activity ERα",ERα LBD; 0.1 nM,0.02077
same,"relative light unit (RLU), ligand binding activity ERα",ERα LBD; 1 nM,0.01753
same,"relative light unit (RLU), ligand binding activity ERα",ERα LBD; 10 nM,0.01191
same,"relative light unit (RLU), ligand binding activity ERα",ERα LBD; 100 nM,0.008685
"O=C(NC(Cc1ccc(O)cc1)c1ccc(O)cc1)C(F)(F)F (stereo not drawn) [Compound 10, N-(1,2-bis(4-hydroxyphenyl)ethyl)-2,2,2-trifluoroacetamide]","relative light unit (RLU), ligand binding activity ERβ",ERβ LBD; 1 nM,0.01539
same,"relative light unit (RLU), ligand binding activity ERβ",ERβ LBD; 10 nM,0.0134
same,"relative light unit (RLU), ligand binding activity ERβ",ERβ LBD; 100 nM,0.2211
same,"relative light unit (RLU), ligand binding activity ERα",ERα LBD; 1 nM,0.008272
same,"relative light unit (RLU), ligand binding activity ERα",ERα LBD; 10 nM,0.0163
same,"relative light unit (RLU), ligand binding activity ERα",ERα LBD; 100 nM,0.01156
"CCC(C)C(Cc1ccc(O)cc1)c1ccc(O)cc1 (stereo not drawn) [Compound 6, 4,4′-(3-methylpentane-1,2-diyl)diphenol]","relative light unit (RLU), ligand binding activity ERβ",ERβ LBD; 1 nM,0.01046
same,"relative light unit (RLU), ligand binding activity ERβ",ERβ LBD; 10 nM,0.02031
same,"relative light unit (RLU), ligand binding activity ERβ",ERβ LBD; 100 nM,0.2041
same,"relative light unit (RLU), ligand binding activity ERα",ERα LBD; 1 nM,0.008097
same,"relative light unit (RLU), ligand binding activity ERα",ERα LBD; 10 nM,0.01098
same,"relative light unit (RLU), ligand binding activity ERα",ERα LBD; 100 nM,0.01183
"Oc1ccc(CC(c2ccc(O)cc2)c2cnco2)cc1 (stereo not drawn) [Compound 13, 4,4′-(1-(oxazol-5-yl)ethane-1,2-diyl)diphenol]","relative light unit (RLU), ligand binding activity ERβ",ERβ LBD; 0.01 nM,0.01293
same,"relative light unit (RLU), ligand binding activity ERβ",ERβ LBD; 0.1 nM,0.01887
same,"relative light unit (RLU), ligand binding activity ERβ",ERβ LBD; 1 nM,0.02471
same,"relative light unit (RLU), ligand binding activity ERβ",ERβ LBD; 10 nM,0.04313
same,"relative light unit (RLU), ligand binding activity ERβ",ERβ LBD; 100 nM,0.8322
same,"relative light unit (RLU), ligand binding activity ERα",ERα LBD; 0.01 nM,0.01362
same,"relative light unit (RLU), ligand binding activity ERα",ERα LBD; 0.1 nM,0.006796
same,"relative light unit (RLU), ligand binding activity ERα",ERα LBD; 1 nM,0.01285
same,"relative light unit (RLU), ligand binding activity ERα",ERα LBD; 10 nM,0.01611
same,"relative light unit (RLU), ligand binding activity ERα",ERα LBD; 100 nM,0.01431
"Oc1ccc(CC(C=C(Cl)Cl)c2ccc(O)cc2F)c(F)c1 (stereo not drawn) [Compound 17-Cl, 4,4′-(4,4-dichlorobut-3-ene-1,2-diyl)bis(3-fluorophenol)]","relative light unit (RLU), ligand binding activity ERβ",ERβ LBD; 0.01 nM,0.04108
same,"relative light unit (RLU), ligand binding activity ERβ",ERβ LBD; 0.1 nM,0.116
same,"relative light unit (RLU), ligand binding activity ERβ",ERβ LBD; 1 nM,1.22
same,"relative light unit (RLU), ligand binding activity ERβ",ERβ LBD; 10 nM,1.682
same,"relative light unit (RLU), ligand binding activity ERβ",ERβ LBD; 100 nM,2.029
same,"relative light unit (RLU), ligand binding activity ERα",ERα LBD; 0.01 nM,0.03467
same,"relative light unit (RLU), ligand binding activity ERα",ERα LBD; 0.1 nM,0.03125
same,"relative light unit (RLU), ligand binding activity ERα",ERα LBD; 1 nM,0.05395
same,"relative light unit (RLU), ligand binding activity ERα",ERα LBD; 10 nM,0.92
same,"relative light unit (RLU), ligand binding activity ERα",ERα LBD; 100 nM,2.707
"Oc1ccc(CC(C=CF)c2ccc(O)cc2)cc1 (stereo not drawn) [Compound 8, 4,4′-(4-fluorobut-3-ene-1,2-diyl)diphenol]","relative light unit (RLU), ligand binding activity ERβ",ERβ LBD; 0.01 nM,0.01223
same,"relative light unit (RLU), ligand binding activity ERβ",ERβ LBD; 0.1 nM,0.5254
same,"relative light unit (RLU), ligand binding activity ERβ",ERβ LBD; 1 nM,0.9979
same,"relative light unit (RLU), ligand binding activity ERβ",ERβ LBD; 10 nM,1.068
same,"relative light unit (RLU), ligand binding activity ERβ",ERβ LBD; 100 nM,1.031
same,"relative light unit (RLU), ligand binding activity ERα",ERα LBD; 0.01 nM,0.005812
same,"relative light unit (RLU), ligand binding activity ERα",ERα LBD; 0.1 nM,0.005926
same,"relative light unit (RLU), ligand binding activity ERα",ERα LBD; 1 nM,0.007223
same,"relative light unit (RLU), ligand binding activity ERα",ERα LBD; 10 nM,0.1184
same,"relative light unit (RLU), ligand binding activity ERα",ERα LBD; 100 nM,0.423
"CC=CC(Cc1ccc(O)cc1)c1ccc(O)cc1 (stereo not drawn) [Compound 5, 4,4′-(pent-3-ene-1,2-diyl)diphenol]","relative light unit (RLU), ligand binding activity ERβ",ERβ LBD; 0.01 nM,0.01699
same,"relative light unit (RLU), ligand binding activity ERβ",ERβ LBD; 0.1 nM,0.1395
same,"relative light unit (RLU), ligand binding activity ERβ",ERβ LBD; 1 nM,0.9744
same,"relative light unit (RLU), ligand binding activity ERβ",ERβ LBD; 10 nM,1.153
same,"relative light unit (RLU), ligand binding activity ERβ",ERβ LBD; 100 nM,1.216
same,"relative light unit (RLU), ligand binding activity ERα",ERα LBD; 1 nM,0.006803
same,"relative light unit (RLU), ligand binding activity ERα",ERα LBD; 10 nM,0.008307
same,"relative light unit (RLU), ligand binding activity ERα",ERα LBD; 100 nM,0.319
"Oc1ccc(C(C=C(Cl)Cl)Cc2c(F)cc(O)cc2F)cc1 (stereo not drawn) [Compound 18-Cl, 4-(4,4-dichloro-2-(4-hydroxyphenyl)but-3-en-1-yl)-3,5-difluorophenol]","relative light unit (RLU), ligand binding activity ERβ",ERβ LBD; 0.01 nM,0.07422
same,"relative light unit (RLU), ligand binding activity ERβ",ERβ LBD; 0.1 nM,0.4259
same,"relative light unit (RLU), ligand binding activity ERβ",ERβ LBD; 1 nM,1.819
same,"relative light unit (RLU), ligand binding activity ERβ",ERβ LBD; 10 nM,1.997
same,"relative light unit (RLU), ligand binding activity ERβ",ERβ LBD; 100 nM,2.261
same,"relative light unit (RLU), ligand binding activity ERα",ERα LBD; 0.01 nM,0.0398
same,"relative light unit (RLU), ligand binding activity ERα",ERα LBD; 0.1 nM,0.04255
same,"relative light unit (RLU), ligand binding activity ERα",ERα LBD; 1 nM,0.122
same,"relative light unit (RLU), ligand binding activity ERα",ERα LBD; 10 nM,2.2626
same,"relative light unit (RLU), ligand binding activity ERα",ERα LBD; 100 nM,3.229
"Oc1ccc(CC(c2ccc(O)cc2)C2CC2)cc1 (stereo not drawn) [Compound 1, 4,4′-(1-cyclopropylethane-1,2-diyl)diphenol]","relative light unit (RLU), ligand binding activity ERβ",ERβ LBD; 1 nM,0.04726
same,"relative light unit (RLU), ligand binding activity ERβ",ERβ LBD; 10 nM,0.7801
same,"relative light unit (RLU), ligand binding activity ERβ",ERβ LBD; 100 nM,0.674
same,"relative light unit (RLU), ligand binding activity ERα",ERα LBD; 1 nM,0.01123
same,"relative light unit (RLU), ligand binding activity ERα",ERα LBD; 10 nM,0.01001
same,"relative light unit (RLU), ligand binding activity ERα",ERα LBD; 100 nM,0.03514
"Oc1ccc(CC(c2ccc(O)cc2)c2cocn2)cc1 (stereo not drawn) [Compound 16, 4,4′-(1-(oxazol-4-yl)ethane-1,2-diyl)diphenol]","relative light unit (RLU), ligand binding activity ERβ",ERβ LBD; 0.01 nM,0.0173
same,"relative light unit (RLU), ligand binding activity ERβ",ERβ LBD; 0.1 nM,0.02216
same,"relative light unit (RLU), ligand binding activity ERβ",ERβ LBD; 1 nM,0.01759
same,"relative light unit (RLU), ligand binding activity ERβ",ERβ LBD; 10 nM,0.06729
same,"relative light unit (RLU), ligand binding activity ERβ",ERβ LBD; 100 nM,0.8625
same,"relative light unit (RLU), ligand binding activity ERα",ERα LBD; 0.01 nM,0.01424
same,"relative light unit (RLU), ligand binding activity ERα",ERα LBD; 0.1 nM,0.01773
same,"relative light unit (RLU), ligand binding activity ERα",ERα LBD; 1 nM,0.01714
same,"relative light unit (RLU), ligand binding activity ERα",ERα LBD; 10 nM,0.0182
same,"relative light unit (RLU), ligand binding activity ERα",ERα LBD; 100 nM,0.0245
"Oc1ccc(CC(c2ccc(O)cc2)c2ncon2)cc1 (stereo not drawn) [Compound 14, 4,4′-(1-(1,2,4-oxadiazol-3-yl)ethane-1,2-diyl)diphenol]","relative light unit (RLU), ligand binding activity ERβ",ERβ LBD; 0.01 nM,0.02708
same,"relative light unit (RLU), ligand binding activity ERβ",ERβ LBD; 0.1 nM,0.02188
same,"relative light unit (RLU), ligand binding activity ERβ",ERβ LBD; 1 nM,0.02069
same,"relative light unit (RLU), ligand binding activity ERβ",ERβ LBD; 10 nM,0.08851
same,"relative light unit (RLU), ligand binding activity ERβ",ERβ LBD; 100 nM,0.9946
same,"relative light unit (RLU), ligand binding activity ERα",ERα LBD; 0.01 nM,0.01031
same,"relative light unit (RLU), ligand binding activity ERα",ERα LBD; 0.1 nM,0.01495
same,"relative light unit (RLU), ligand binding activity ERα",ERα LBD; 1 nM,0.02004
same,"relative light unit (RLU), ligand binding activity ERα",ERα LBD; 10 nM,0.01493
same,"relative light unit (RLU), ligand binding activity ERα",ERα LBD; 100 nM,0.02047
